Measured values as given in ChEMBL document CHEMBL1201861, “Genomics of Drug Sensitity in Cancer screening data, Wellcome Trust Sanger Institute”.

Key:
Test in all cases: cells
[1] = test system: SNU1; format: functional, cell-based, Homo sapiens; settings: Homo sapiens, SNU1;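 also: growth inhibition of human NCI-SNU-1 cells, measured with a cell viability assay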
Description: SANGER: Inhibition of human NCI-SNU-1 cell growth in a cell viability assay.

[2] = test system: HCE-T; format: functional, cell-based, Homo sapiens; settings: Homo sapiens, HCE-T;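 also: cell viability assay read-out, reporting inhibition of HCE-T cell growth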
Description: SANGER: Inhibition of human HCE-T cell growth in a cell viability assay.

[3] = test system: BE-13; format: functional, cell-based, Homo sapiens; settings: Homo sapiens, BE-13;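 also: growth inhibition of human BE-13 cells, measured with a cell viability assay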
Description: SANGER: Inhibition of human BE-13 cell growth in a cell viability assay.

[4] = test system: NB10; format: functional, cell-based, Homo sapiens; settings: Homo sapiens, NB10;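 also: growth inhibition of NB10 cells, read out by a cell viability assay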
Description: SANGER: Inhibition of human NB10 cell growth in a cell viability assay.

[5] = test system: KE-37; format: functional, cell-based, Homo sapiens; settings: Homo sapiens, KE-37;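 also: growth inhibition of KE-37 cells, read out with a cell viability assay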
Description: SANGER: Inhibition of human KE-37 cell growth in a cell viability assay.

[6] = test system: SK-N-FI; format: functional, cell-based, Homo sapiens; settings: Homo sapiens, SK-N-FI;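 also: cell viability assay measuring growth inhibition of human SK-N-FI cells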
Description: SANGER: Inhibition of human SK-N-FI cell growth in a cell viability assay.

[7] = test system: ATN-1; format: functional, cell-based, Homo sapiens; settings: Homo sapiens, ATN-1;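 also: growth inhibition of human ATN-1 cells, read out with a cell viability assay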
Description: SANGER: Inhibition of human ATN-1 cell growth in a cell viability assay.

[8] = test system: SW 962; format: functional, cell-based, Homo sapiens; settings: Homo sapiens, SW 962;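 also: growth inhibition of human SW962 cells, read out by a cell viability assay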
Description: SANGER: Inhibition of human SW962 cell growth in a cell viability assay.

[9] = test system: P30-OHK; format: functional, cell-based, Homo sapiens; settings: Homo sapiens, P30-OHK;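 also: growth inhibition of the P30-OHK cell line, read out with a cell viability assay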
Description: SANGER: Inhibition of human P30-OHK cell growth in a cell viability assay.

[10] = test system: KURAMOCHI; format: functional, cell-based, Homo sapiens; settings: Homo sapiens, KURAMOCHI;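 also: growth inhibition of KURAMOCHI cells, read out with a cell viability assay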
Description: SANGER: Inhibition of human KURAMOCHI cell growth in a cell viability assay.

[11] = test system: NCI-H747; format: functional, cell-based, Homo sapiens; settings: Homo sapiens, NCI-H747;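 also: growth inhibition of human NCI-H747 cells, read out by a cell viability assay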
Description: SANGER: Inhibition of human NCI-H747 cell growth in a cell viability assay.

[12] = test system: LB1047-RCC; format: functional, cell-based, Homo sapiens; settings: Homo sapiens, LB1047-RCC;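 also: inhibition of cell growth, determined with a cell viability assay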
Description: SANGER: Inhibition of human LB1047-RCC cell growth in a cell viability assay.

[13] = test system: NCI-H446; format: functional, cell-based, Homo sapiens; settings: Homo sapiens, NCI-H446;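 also: growth inhibition of NCI-H446 cells determined by a cell viability assay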
Description: SANGER: Inhibition of human NCI-H446 cell growth in a cell viability assay.

[14] = test system: OVCAR-4; format: functional, cell-based, Homo sapiens; settings: Homo sapiens, OVCAR-4;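 also: growth inhibition of human OVCAR-4 cells, measured with a cell viability assay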
Description: SANGER: Inhibition of human OVCAR-4 cell growth in a cell viability assay.

[15] = test system: DJM-1; format: functional, cell-based, Homo sapiens; settings: Homo sapiens, DJM-1;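 also: growth inhibition of human DJM-1 cells, read out by a cell viability assay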
Description: SANGER: Inhibition of human DJM-1 cell growth in a cell viability assay.

[16] = test system: NCI-H82; format: functional, cell-based, Homo sapiens; settings: Homo sapiens, NCI-H82;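 also: growth inhibition of NCI-H82 cells, measured with a cell viability readout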
Description: SANGER: Inhibition of human NCI-H82 cell growth in a cell viability assay.

[17] = test system: ES4; format: functional, cell-based, Homo sapiens; settings: Homo sapiens, ES4;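 also: growth inhibition of human ES4 cells, read out by a cell viability assay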
Description: SANGER: Inhibition of human ES4 cell growth in a cell viability assay.

[18] = test system: A4-Fuk; format: functional, cell-based, Homo sapiens; settings: Homo sapiens, A4-Fuk;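 also: growth inhibition of A4-Fuk cells, read out by a cell viability assay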
Description: SANGER: Inhibition of human A4-Fuk cell growth in a cell viability assay.

[19] = test system: NOS-1; format: functional, cell-based, Homo sapiens; settings: Homo sapiens, NOS-1;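 also: growth inhibition of the human NOS-1 cell line, read out with a cell viability assay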
Description: SANGER: Inhibition of human NOS-1 cell growth in a cell viability assay.

[20] = test system: HAL-01; format: functional, cell-based, Homo sapiens; settings: Homo sapiens, HAL-01;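 also: growth inhibition of human HAL-01 cells, read out with a cell viability assay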
Description: SANGER: Inhibition of human HAL-01 cell growth in a cell viability assay.

[21] = test system: LU-139; format: functional, cell-based, Homo sapiens; settings: Homo sapiens, LU-139
Description: SANGER: Inhibition of human LU-139 cell growth in a cell viability assay.

[22] = test system: GT3TKB; format: functional, cell-based, Homo sapiens; settings: Homo sapiens, GT3TKB;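 also: growth inhibition of the cell line, read out with a cell viability assay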
Description: SANGER: Inhibition of human GT3TKB cell growth in a cell viability assay.

[23] = test system: RKO; format: functional, cell-based, Homo sapiens; settings: Homo sapiens, RKO;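 also: growth inhibition of human RKO cells, read out with a cell viability assay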
Description: SANGER: Inhibition of human RKO cell growth in a cell viability assay.

[24] = test system: L-363; format: functional, cell-based, Homo sapiens; settings: Homo sapiens, L-363
Description: SANGER: Inhibition of human L-363 cell growth in a cell viability assay.

[25] = test system: ML-2; format: functional, cell-based, Homo sapiens; settings: Homo sapiens, ML-2;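 also: growth inhibition of ML-2 cells, measured with a cell viability readout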
Description: SANGER: Inhibition of human ML-2 cell growth in a cell viability assay.

[26] = test system: JAR; format: functional, cell-based, Homo sapiens; settings: Homo sapiens, JAR;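 also: growth inhibition of human JAR cells determined with a cell viability assay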
Description: SANGER: Inhibition of human JAR cell growth in a cell viability assay.

[27] = test system: IST-MES1; format: functional, cell-based, Homo sapiens; settings: Homo sapiens, IST-MES1;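 also: growth inhibition of IST-MES1 cells, measured with a cell viability assay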
Description: SANGER: Inhibition of human IST-MES1 cell growth in a cell viability assay.

[28] = test system: NCI-H526; format: functional, cell-based, Homo sapiens; settings: Homo sapiens, NCI-H526;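 also: growth inhibition of the human NCI-H526 cell line, measured by a cell viability assay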
Description: SANGER: Inhibition of human NCI-H526 cell growth in a cell viability assay.

[29] = test system: SK-NEP-1; format: functional, cell-based, Homo sapiens; settings: Homo sapiens, SK-NEP-1;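 also: growth inhibition of human SK-NEP-1 cells, read out by a cell viability assay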
Description: SANGER: Inhibition of human SK-NEP-1 cell growth in a cell viability assay.

[30] = test system: COLO-684; format: functional, cell-based, Homo sapiens; settings: Homo sapiens, COLO-684
Description: SANGER: Inhibition of human COLO-684 cell growth in a cell viability assay.

[31] = test system: TK-10; format: functional, cell-based, Homo sapiens; settings: Homo sapiens, TK-10;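 also: growth inhibition of TK-10 cells, read out in a cell viability assay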
Description: SANGER: Inhibition of human TK10 cell growth in a cell viability assay.

[32] = test system: SHP77; format: functional, cell-based, Homo sapiens, SHP-77; settings: Homo sapiens, SHP77;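 also: growth inhibition of human SHP-77 cells measured by a cell viability assay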
Description: SANGER: Inhibition of human SHP-77 cell growth in a cell viability assay.

[33] = test system: TGBC1TKB; format: functional, cell-based, Homo sapiens; settings: Homo sapiens, TGBC1TKB;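 also: growth inhibition of TGBC1TKB cells, read out by a cell viability assay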
Description: SANGER: Inhibition of human TGBC1TKB cell growth in a cell viability assay.

[34] = test system: LAMA-84; format: functional, cell-based, Homo sapiens; settings: Homo sapiens, LAMA-84;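 also: growth inhibition of LAMA-84 cells, read out with a cell viability assay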
Description: SANGER: Inhibition of human LAMA-84 cell growth in a cell viability assay.

[35] = test system: U-266; format: functional, cell-based, Homo sapiens; settings: Homo sapiens, U-266
Description: SANGER: Inhibition of human U-266 cell growth in a cell viability assay.

[36] = test system: OS-RC-2; format: functional, cell-based, Homo sapiens; settings: Homo sapiens, OS-RC-2;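 also: growth inhibition of human OS-RC-2 cells, measured by a cell viability assay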
Description: SANGER: Inhibition of human OS-RC-2 cell growth in a cell viability assay.

[37] = test system: MC116; format: functional, cell-based, Homo sapiens; settings: Homo sapiens, MC116;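 also: growth inhibition of MC116 cells, read out with a cell viability assay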
Description: SANGER: Inhibition of human MC116 cell growth in a cell viability assay.

[38] = test system: A3-KAW; format: functional, cell-based, Homo sapiens; settings: Homo sapiens, A3-KAW;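 also: growth inhibition of human A3-KAW cells, read out with a cell viability assay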
Description: SANGER: Inhibition of human A3-KAW cell growth in a cell viability assay.

[39] = test system: EW-3; format: functional, cell-based, Homo sapiens; settings: Homo sapiens, EW-3;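 also: cell viability assay read-out, IC50 reflects inhibition of growth of the EW-3 cells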
Description: SANGER: Inhibition of human EW-3 cell growth in a cell viability assay.

[40] = test system: CAS-1; format: functional, cell-based, Homo sapiens; settings: Homo sapiens, CAS-1;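 also: growth inhibition of CAS-1 cells, measured with a cell viability assay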
Description: SANGER: Inhibition of human CAS-1 cell growth in a cell viability assay.

[41] = test system: EW-1; format: functional, cell-based, Homo sapiens; settings: Homo sapiens, EW-1;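 also: growth inhibition of the human EW-1 cell line, read out by a cell viability assay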
Description: SANGER: Inhibition of human EW-1 cell growth in a cell viability assay.

[42] = test system: NMC-G1; format: functional, cell-based, Homo sapiens; settings: Homo sapiens, NMC-G1;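 also: growth inhibition of the NMC-G1 cell line, measured with a cell viability read-out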
Description: SANGER: Inhibition of human NMC-G1 cell growth in a cell viability assay.

[43] = test system: JVM-2; format: functional, cell-based, Homo sapiens; settings: Homo sapiens, JVM-2;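 also: growth inhibition of JVM-2 cells determined by a cell viability assay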
Description: SANGER: Inhibition of human JVM-2 cell growth in a cell viability assay.

[44] = test system: EW-13; format: functional, cell-based, Homo sapiens; settings: Homo sapiens, EW-13; read-out: IC50;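 also: growth inhibition of EW-13 cells, read out with a cell viability assay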
Description: SANGER: Inhibition of human EW-13 cell growth in a cell viability assay.

[45] = test system: GCIY; format: functional, cell-based, Homo sapiens; settings: Homo sapiens, GCIY;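 also: growth inhibition of the human GCIY cell line, read out by a cell viability assay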
Description: SANGER: Inhibition of human GCIY cell growth in a cell viability assay.

[46] = test system: CTB-1; format: functional, cell-based, Homo sapiens; settings: Homo sapiens, CTB-1
Description: SANGER: Inhibition of human CTB-1 cell growth in a cell viability assay.

[47] = test system: DSH1; format: functional, cell-based; settings: Homo sapiens;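 also: growth inhibition of human DSH1 cells, measured with a cell viability readout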
Description: SANGER: Inhibition of human DSH1 cell growth in a cell viability assay.

[48] = test system: 697; format: functional, cell-based, Homo sapiens; settings: Homo sapiens
Description: SANGER: Inhibition of human 697 cell growth in a cell viability assay.

[49] = test system: RXF 393; format: functional, cell-based, Homo sapiens; settings: Homo sapiens, RXF 393;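 also: growth inhibition of human RXF 393 cells, read out with a cell viability assay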
Description: SANGER: Inhibition of human RXF393 cell growth in a cell viability assay.

[50] = test system: SBC-1; format: functional, cell-based, Homo sapiens; settings: Homo sapiens, SBC-1;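 also: cell viability assay measuring growth inhibition of the SBC-1 cell line, IC50 being the concentration that halves growth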
Description: SANGER: Inhibition of human SBC-1 cell growth in a cell viability assay.

OC[C@H](Cc1ccccc1)Nc1nc(Oc2ccc3c(c2)CCC3)nc2c1ncn2Cc1ccc(-c2ccccc2)cc1
IC50 [1]: > 10200 nM
IC50 [2]: > 10200 nM
IC50 [3]: > 10200 nM
IC50 [4]: > 10200 nM
IC50 [5]: 9310 nM
IC50 [6]: > 10200 nM
IC50 [7]: > 10200 nM
IC50 [8]: > 10200 nM
IC50 [9]: 3560 nM
IC50 [10]: 3820 nM
IC50 [11]: > 10200 nM
IC50 [12]: > 10200 nM
IC50 [13]: > 10200 nM
IC50 [14]: 8190 nM
IC50 [15]: > 10200 nM
IC50 [16]: > 10200 nM
IC50 [17]: 8510 nM
IC50 [18]: > 10200 nM
IC50 [19]: > 10200 nM
IC50 [20]: 9160 nM
IC50 [21]: > 10200 nM
IC50 [22]: > 10200 nM
IC50 [23]: 3370 nM
IC50 [24]: 6660 nM
IC50 [25]: > 10200 nM
IC50 [26]: > 10200 nM
IC50 [27]: > 10200 nM
IC50 [28]: > 10200 nM
IC50 [29]: > 10200 nM
IC50 [30]: > 10200 nM
IC50 [31]: > 10200 nM
IC50 [32]: > 10200 nM
IC50 [33]: > 10200 nM
IC50 [34]: > 10200 nM
IC50 [35]: > 10200 nM
IC50 [36]: > 10200 nM
IC50 [37]: > 10200 nM
IC50 [38]: 7380 nM
IC50 [39]: > 10200 nM
IC50 [40]: > 10200 nM
IC50 [41]: > 10200 nM
IC50 [42]: > 10200 nM
IC50 [43]: > 10200 nM
IC50 [44]: 413 nM
IC50 [45]: > 10200 nM
IC50 [46]: > 10200 nM
IC50 [47]: 6820 nM
IC50 [48]: 3320 nM
IC50 [49]: > 10200 nM
IC50 [50]: > 10200 nM

NC(=O)c1cccc(-c2cc(Nc3ccc(OC(F)(F)F)cc3)ncn2)c1
IC50 [1]: > 1280 nM
IC50 [2]: > 1280 nM
IC50 [3]: > 1280 nM
IC50 [4]: > 1280 nM
IC50 [5]: > 1280 nM
IC50 [6]: > 1280 nM
IC50 [7]: > 1280 nM
IC50 [8]: > 1280 nM
IC50 [9]: > 1280 nM
IC50 [10]: > 1280 nM
IC50 [11]: > 1280 nM
IC50 [12]: > 1280 nM
IC50 [13]: > 1280 nM
IC50 [14]: > 1280 nM
IC50 [15]: > 1280 nM
IC50 [16]: > 1280 nM
IC50 [17]: > 1280 nM
IC50 [18]: > 1280 nM
IC50 [19]: 571 nM
IC50 [20]: > 1280 nM
IC50 [21]: > 1280 nM
IC50 [22]: > 1280 nM
IC50 [23]: > 1280 nM
IC50 [24]: > 1280 nM
IC50 [25]: > 1280 nM
IC50 [26]: > 1280 nM
IC50 [27]: > 1280 nM
IC50 [28]: > 1280 nM
IC50 [29]: > 1280 nM
IC50 [30]: > 1280 nM
IC50 [31]: > 1280 nM
IC50 [32]: > 1280 nM
IC50 [33]: > 1280 nM
IC50 [34]: 163 nM
IC50 [35]: > 1280 nM
IC50 [36]: > 1280 nM
IC50 [37]: > 1280 nM
IC50 [38]: > 1280 nM
IC50 [39]: > 1280 nM
IC50 [40]: > 1280 nM
IC50 [41]: > 1280 nM
IC50 [42]: > 1280 nM
IC50 [43]: > 1280 nM
IC50 [44]: > 1280 nM
IC50 [45]: > 1280 nM
IC50 [46]: > 1280 nM
IC50 [47]: > 1280 nM
IC50 [48]: > 1280 nM
IC50 [49]: > 1280 nM
IC50 [50]: 1000 nM

CC1(C)CCC(c2ccc(Cl)cc2)=C(CN2CCN(c3ccc(C(=O)NS(=O)(=O)c4ccc(N[C@H](CCN5CCOCC5)CSc5ccccc5)c(S(=O)(=O)C(F)(F)F)c4)cc3)CC2)C1 [NAVITOCLAX]
IC50 [1]: 1370 nM
IC50 [2]: > 2000 nM
IC50 [3]: 365 nM
IC50 [4]: > 2000 nM
IC50 [5]: 114 nM
IC50 [6]: > 2000 nM
IC50 [7]: 47.3 nM
IC50 [8]: > 2000 nM
IC50 [9]: 1050 nM
IC50 [10]: > 2000 nM
IC50 [11]: > 2000 nM
IC50 [12]: > 2000 nM
IC50 [13]: > 2000 nM
IC50 [14]: > 2000 nM
IC50 [15]: > 2000 nM
IC50 [16]: > 2000 nM
IC50 [17]: 1350 nM
IC50 [18]: > 2000 nM
IC50 [19]: > 2000 nM
IC50 [20]: 725 nM
IC50 [21]: 205 nM
IC50 [22]: > 2000 nM
IC50 [23]: > 2000 nM
IC50 [24]: > 2000 nM
IC50 [25]: 19.8 nM
IC50 [26]: > 2000 nM
IC50 [27]: > 2000 nM
IC50 [28]: > 2000 nM
IC50 [29]: 72.1 nM
IC50 [30]: > 2000 nM
IC50 [31]: > 2000 nM
IC50 [32]: > 2000 nM
IC50 [33]: 1140 nM
IC50 [34]: 592 nM
IC50 [35]: > 2000 nM
IC50 [36]: > 2000 nM
IC50 [37]: > 2000 nM
IC50 [38]: > 2000 nM
IC50 [39]: 80.5 nM
IC50 [40]: > 2000 nM
IC50 [41]: > 2000 nM
IC50 [42]: 811 nM
IC50 [43]: > 2000 nM
IC50 [44]: 583 nM
IC50 [45]: > 2000 nM
IC50 [46]: > 2000 nM
IC50 [47]: > 2000 nM
IC50 [48]: 108 nM
IC50 [49]: > 2000 nM
IC50 [50]: 1190 nM

Nc1ccccc1NC(=O)c1ccc(CNC(=O)OCc2cccnc2)cc1 [ENTINOSTAT]
IC50 [1]: > 5000 nM
IC50 [2]: 872 nM
IC50 [3]: 497 nM
IC50 [4]: 2410 nM
IC50 [5]: 643 nM
IC50 [6]: 3450 nM
IC50 [7]: 306 nM
IC50 [8]: > 5000 nM
IC50 [9]: > 5000 nM
IC50 [10]: 1770 nM
IC50 [11]: 3050 nM
IC50 [12]: 1630 nM
IC50 [13]: > 5000 nM
IC50 [14]: 1130 nM
IC50 [15]: 3600 nM
IC50 [16]: 1630 nM
IC50 [17]: 859 nM
IC50 [18]: 1150 nM
IC50 [19]: 196 nM
IC50 [20]: 1170 nM
IC50 [21]: 335 nM
IC50 [22]: 4330 nM
IC50 [23]: 3770 nM
IC50 [24]: 567 nM
IC50 [25]: 2330 nM
IC50 [26]: 878 nM
IC50 [27]: 3180 nM
IC50 [28]: 635 nM
IC50 [29]: 1200 nM
IC50 [30]: > 5000 nM
IC50 [31]: 1830 nM
IC50 [32]: 4010 nM
IC50 [33]: > 5000 nM
IC50 [34]: 776 nM
IC50 [35]: 2850 nM
IC50 [36]: 968 nM
IC50 [37]: 1440 nM
IC50 [38]: 176 nM
IC50 [39]: > 5000 nM
IC50 [40]: > 5000 nM
IC50 [41]: 2770 nM
IC50 [42]: 404 nM
IC50 [43]: > 5000 nM
IC50 [44]: > 5000 nM
IC50 [45]: > 5000 nM
IC50 [46]: 3050 nM
IC50 [47]: 287 nM
IC50 [48]: 99.8 nM
IC50 [49]: > 5000 nM
IC50 [50]: 1430 nM
